Patent US20100204203A1, “Chemical Compounds 637: Pyridopyrimidinediones as PDE4 Inhibitors” (priority 2007, published 2010)

Each compound was assayed against recombinant Human Phosphodiesterase B2 (PDE4B2) (Homo sapiens, UniProt Q07343) (assay: Human Phosphodiesterase B2 Radiometric Assay (yttrium silicate SPA beads, [3H]cyclic AMP)). Conditions: recombinant human PDE4B2, radiometric SPA assay, 8 nM [3H]cyclic AMP; read-out: PDE4B2 pIC50 (converted).
Assay type: biochemical
Method in brief: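 Compounds were preincubated 30 min at 30 °C with 0.1 mg/mL PDE4B2 in 50 mM HEPES pH 7.5, 8.3 mM MgCl2, 1.7 mM EGTA, 0.01% Brij 35. Then 8 nM [3H]cAMP was added for 20 min, stopped with yttrium silicate SPA beads plus 18 mM ZnSO4 capturing product 5′AMP; pIC50 by curve fitting.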

Chain of recombinant Human Phosphodiesterase B2 (PDE4B2) (Q07343 1-564 isoform Q07343-2): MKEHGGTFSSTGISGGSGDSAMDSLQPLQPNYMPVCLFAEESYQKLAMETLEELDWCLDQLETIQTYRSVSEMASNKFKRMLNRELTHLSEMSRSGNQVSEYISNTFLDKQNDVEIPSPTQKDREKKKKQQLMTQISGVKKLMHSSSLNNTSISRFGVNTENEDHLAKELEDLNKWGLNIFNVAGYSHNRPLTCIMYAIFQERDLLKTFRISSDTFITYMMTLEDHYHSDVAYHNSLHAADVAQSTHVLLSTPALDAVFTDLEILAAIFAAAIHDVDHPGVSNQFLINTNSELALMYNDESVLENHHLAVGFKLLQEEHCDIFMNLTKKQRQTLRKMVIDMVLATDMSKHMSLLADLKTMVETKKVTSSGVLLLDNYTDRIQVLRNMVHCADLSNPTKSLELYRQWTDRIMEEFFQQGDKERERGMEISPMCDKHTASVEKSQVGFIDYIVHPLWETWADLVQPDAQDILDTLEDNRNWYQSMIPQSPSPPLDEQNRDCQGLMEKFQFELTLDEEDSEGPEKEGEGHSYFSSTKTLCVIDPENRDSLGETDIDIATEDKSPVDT

SMILES	IC50 [nM]
O=C(CN1CCNCC1)N[C@H]1CC[C@@H](n2c(=O)c3cc(F)cnc3n(-c3cccc(-c4ccccc4)c3)c2=O)CC1 [Example 106, N-[cis-4-(1-biphenyl-3-yl-6-fluoro-2,4-dioxo-1,4-dihydropyrido[2,3-d]pyrimidin-3(2H)-yl)cyclohexyl]-2-piperazin-1-ylacetamide]	3.16
O=C(N[C@H]1CC[C@@H](n2c(=O)c3cc(F)cnc3n(-c3cccc(-c4ccc(CN5CCOCC5)cc4)c3)c2=O)CC1)c1cn2c(n1)CCCC2 [Example 109, N-{cis-4-[6-fluoro-1-[4′-(morpholin-4-ylmethyl)biphenyl-3-yl]-2,4-dioxo-1,4-dihydropyrido[2,3-d]pyrimidin-3(2H)-yl]cyclohexyl}-5,6,7,8-tetrahydroimidazo[1,2-a]pyridine-2-carboxamide]	0.0158
O=C(N[C@H]1CC[C@@H](n2c(=O)c3cc(F)cnc3n(-c3cccc(-c4ccc(CN5CCNCC5)cc4)c3)c2=O)CC1)c1cn2cc(F)ccc2n1 [Example 54, 6-fluoro-N-{cis-4-[6-fluoro-2,4-dioxo-1-[4′-(piperazin-1-ylmethyl)biphenyl-3-yl]-1,4-dihydropyrido[2,3-d]pyrimidin-3(2H)-yl]cyclohexyl}imidazo[1,2-a]pyridine-2-carboxamide]	0.0158
CN(C)Cc1cccc(-c2cccc(-n3c(=O)n([C@H]4CC[C@@H](NC(=O)c5cn6cc(F)ccc6n5)CC4)c(=O)c4cc(F)cnc43)c2)c1 [Example 16, N-{cis-4-[1-{3′-[(dimethylamino)methyl]biphenyl-3-yl}-6-fluoro-2,4-dioxo-1,4-dihydropyrido[2,3-d]pyrimidin-3(2H)-yl]cyclohexyl}-6-fluoroimidazo[1,2-a]pyridine-2-carboxamide.]	0.251
CN(C)[C@H]1CC[C@@H](n2c(=O)c3cc(F)cnc3n(-c3cccc(-c4ccccc4)c3)c2=O)CC1 [Example 66, 1-biphenyl-3-yl-3-[cis-4-(dimethylamino)cyclohexyl]-6-fluoropyrido[2,3-d]pyrimidine-2,4(1H,3H)-dione]	63.1
Cc1cc(O)ccc1-c1cccc(-n2c(=O)n([C@H]3CC[C@@H](NC(=O)c4cn5cc(F)ccc5n4)CC3)c(=O)c3cc(F)cnc32)c1 [Example 23, 6-fluoro-N-{cis-4-[6-fluoro-1-(4′-hydroxy-2′-methylbiphenyl-3-yl)-2,4-dioxo-1,4-dihydropyrido[2,3-d]pyrimidin-3(2H)-yl]cyclohexyl}imidazo[1,2-a]pyridine-2-carboxamide.]	0.0398
CN(Cc1ccccc1)C(=O)c1cccc(-n2c(=O)n([C@H]3CC[C@@H](NC(=O)c4cn5cc(F)ccc5n4)CC3)c(=O)c3cc(F)cnc32)c1 [Example 90, N-{cis-4-[1-(3-{[benzyl(methyl)amino]carbonyl}phenyl)-6-fluoro-2,4-dioxo-1,4-dihydropyrido[2,3-d]pyrimidin-3(2H)-yl]cyclohexyl}-6-fluoroimidazo[1,2-a]pyridine-2-carboxamide]	1.26
Cc1ccc(-c2cccc(-n3c(=O)n([C@H]4CC[C@@H](N)CC4)c(=O)c4cc(F)cnc43)c2)cc1 [Example 47, 3-(cis-4-aminocyclohexyl)-6-fluoro-1-(4′-methylbiphenyl-3-yl)pyrido[2,3-d]pyrimidine-2,4(1H,3H)-dione]	2
CN(C)Cc1ccc(-c2cccc(-n3c(=O)n([C@H]4CC[C@@H](NC(=O)c5cn6cc(F)ccc6n5)CC4)c(=O)c4cc(F)cnc43)c2)cc1 [Example 12, N-{cis-4-[1-{4′-[(dimethylamino)methyl]biphenyl-3-yl}-6-fluoro-2,4-dioxo-1,4-dihydropyrido[2,3-d]pyrimidin-3(2H)-yl]cyclohexyl}-6-fluoroimidazo[1,2-a]pyridine-2-carboxamide]	0.1

Second part, the compound after the results:

IC50 [nM]	SMILES
0.00794	C[C@H]1CN(Cc2ccc(-c3cccc(-n4c(=O)n([C@H]5CC[C@@H](NC(=O)c6cn7cc(F)ccc7n6)CC5)c(=O)c5cc(F)cnc54)c3)cc2)CCN1 (relative stereo) [Example 271, 6-Fluoro-N-{cis-4-[6-fluoro-1-(4′-{[(3S)-3-methylpiperazin-1-yl]methyl}biphenyl-3-yl)-2,4-dioxo-1,4-dihydropyrido[2,3-d]pyrimidin-3(2H)-yl]cyclohexyl}imidazo[1,2-a]pyridine-2-carboxamide]
0.126	CNCCNCc1ccc(-c2cc(C)cc(-n3c(=O)n([C@H]4CC[C@@H](NC(=O)c5cn6cc(F)ccc6n5)CC4)c(=O)c4cc(F)cnc43)c2)cc1 [Example 231]
0.501	CC(=O)n1cc(CN(Cc2cn(C(C)=O)c3ccccc23)[C@H]2CC[C@@H](n3c(=O)c4cc(F)cnc4n(-c4cccc(-c5ccc(CN6CCN(C(C)C)CC6)cc5)c4)c3=O)CC2)c2ccccc21 [Example 341, 3-(cis-4-{bis[(1-acetyl-1H-indol-3-yl)methyl]amino}cyclohexyl)-6-fluoro-1-{4′-[(4-isopropylpiperazin-1-yl)methyl]biphenyl-3-yl}pyrido[2,3-d]pyrimidine-2,4(1H,3H)-dione]
1.58	CCN(CC)CCOc1ccc(CN(C(C)=O)[C@H]2CC[C@@H](n3c(=O)c4cc(F)cnc4n(-c4cccc(-c5ccc(CN6CCN(C(C)C)CC6)cc5)c4)c3=O)CC2)cc1 [Example 340, N-{4-[2-(diethylamino)ethoxy]benzyl}-N-{cis-4-[6-fluoro-1-{4′-[(4-isopropylpiperazin-1-yl)methyl]biphenyl-3-yl}-2,4-dioxo-1,4-dihydropyrido[2,3-d]pyrimidin-3 (2H)-yl]cyclohexyl}acetamide]
2	C[C@H](O)CN(C)Cc1cc(O)ccc1-c1cccc(-n2c(=O)n([C@H]3CC[C@@H](NCc4cn5cc(F)ccc5n4)CC3)c(=O)c3cc(F)cnc32)c1 (relative stereo) [Example 318, 6-fluoro-3-(cis-4-{[(6-fluoroimidazo[1,2-a]pyridin-2-yl)methyl]amino}cyclohexyl)-1-(4′-hydroxy-2′-{[[(2S)-2-hydroxypropyl](methyl)amino]methyl}biphenyl-3-yl)pyrido[2,3-d]pyrimidine-2,4(1H,3H)-dione]
0.0126	O=C1CCN(Cc2cc(O)ccc2-c2cccc(-n3c(=O)n([C@H]4CC[C@@H](NCc5cn6cc(F)ccc6n5)CC4)c(=O)c4cc(F)cnc43)c2)CCN1 [Example 375, 6-fluoro-3-(cis-4-{[(6-fluoroimidazo[1,2-a]pyridin-2-yl)methyl]amino}cyclohexyl)-1-{4′-hydroxy-2′-[(5-oxo-1,4-diazepan-1-yl)methyl]biphenyl-3-yl}pyrido[2,3-d]pyrimidine-2,4(1H,3H)-dione]
6.31	N[C@H]1CC[C@@H](n2c(=O)c3cc(F)cnc3n(-c3cccc(-c4ccc(O)cc4CN4CCNC(=O)CC4)c3)c2=O)CC1 [Example 369, 3-(cis-4-aminocyclohexyl)-6-fluoro-1-{4′-hydroxy-2′-[(5-oxo-1,4-diazepan-1-yl)methyl]biphenyl-3-yl}pyrido[2,3-d]pyrimidine-2,4(1H,3H)-dione]
0.00631	O=C(N[C@H]1CC[C@@H](n2c(=O)c3cc(F)cnc3n(-c3cccc(-c4ccc(CN5CCCN(CCO)CC5)cc4)c3)c2=O)CC1)c1cn2c(n1)CCCC2 [Example 222, N-{cis-4-[6-fluoro-1-(4′-{[4-(2-hydroxyethyl)-1,4-diazepan-1-yl]methyl}biphenyl-3-yl)-2,4-dioxo-1,4-dihydropyrido[2,3-d]pyrimidin-3(2H)-yl]cyclohexyl}-5,6,7,8-tetrahydroimidazo[1,2-a]pyridine-2-carboxamide]
0.02	C[C@@H]1CN(Cc2ccc(-c3cccc(-n4c(=O)n([C@H]5CC[C@@H](NC(=O)c6cnc7ccccc7n6)CC5)c(=O)c5cc(F)cnc54)c3)cc2)C[C@H](C)N1 [Example 303, N-{cis-4-[1-(4′-{[(3R,5S)-3,5-dimethylpiperazin-1-yl]methyl}biphenyl-3-yl)-6-fluoro-2,4-dioxo-1,4-dihydropyrido[2,3-d]pyrimidin-3(2H)-yl]cyclohexyl} quinoxaline-2-carboxamide]
0.0316	Cc1cnc(C(=O)N[C@H]2CC[C@@H](n3c(=O)c4cc(F)cnc4n(-c4cccc(-c5ccc(CN6CCC(N7CCCCC7)CC6)cc5)c4)c3=O)CC2)cn1 [Example 297, N-{cis-4-[1-[4′-(1,4′-bipiperidin-1′-ylmethyl)biphenyl-3-yl]-6-fluoro-2,4-dioxo-1,4-dihydropyrido[2,3-d]pyrimidin-3(2H)-yl]cyclohexyl}-5-methylpyrazine-2-carboxamide]
0.0316	O=C(N[C@H]1CC[C@@H](n2c(=O)c3cc(F)cnc3n(-c3cccc(-c4ccc(CN5CCC(N6CCCCC6)CC5)cc4)c3)c2=O)CC1)c1nc2ccccc2[nH]1 [Example 298, N-{cis-4-[1-[4′-(1,4′-bipiperidin-1′-ylmethyl)biphenyl-3-yl]-6-fluoro-2,4-dioxo-1,4-dihydropyrido[2,3-d]pyrimidin-3(2R)-yl]cyclohexyl}-1H-benzimidazole-2-carboxamide]
2	Cn1ncc(CN[C@H]2CC[C@@H](n3c(=O)c4cc(F)cnc4n(-c4cccc(-c5ccc(CN6CCCOCC6)cc5)c4)c3=O)CC2)c1-c1ccccc1 [Example 265, 6-fluoro-3-(cis-4-{[(1-methyl-5-phenyl-1H-pyrazol-4-yl)methyl]amino}cyclohexyl)-1-[4′-(1,4-oxazepan-4-ylmethyl)biphenyl-3-yl]pyrido[2,3-d]pyrimidine-2,4(1H,3H)-dione]
0.398	CC(C)[C@@H](N)C(=O)N[C@H]1CC[C@@H](n2c(=O)c3cc(F)cnc3n(-c3cccc(-c4ccc(CN5CCCN(C)CC5)cc4)c3)c2=O)CC1 [Example 313, N-{cis-4-[6-fluoro-1-{4′-[(4-methyl-1,4-diazepan-1-yl)methyl]biphenyl-3-yl}-2,4-dioxo-1,4-dihydropyrido[2,3-d]pyrimidin-3(2H)-yl]cyclohexyl}-D-valinamide]
